From ChEMBL document CHEMBL1201862, “PubChem BioAssay data set” (2004)
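A five-concentration, 48-hour dose response in 96-well plates underlies each endpoint, interpolated linearly between surrounding concentrations. GI50: concentration for 50% inhibition of growth.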 Activity calls are given as the source filed them. No stated cut-off is given here; in the data, active = GI50 up to about 1.1 µM and inactive = higher.

Key:
Test in all cases: NCI-60 cell line screen, 48 h
[1] = tested on: COLO 205
[2] = tested on: RPMI-8226
[3] = tested on: OVCAR-4
[4] = tested on: NCI-H23
[5] = tested on: OVCAR-8
[6] = tested on: KM12
[7] = tested on: SK-OV-3
[8] = tested on: ACHN
[9] = tested on: SK-MEL-28
[10] = tested on: 786-0
[11] = tested on: SF-539
[12] = tested on: K562
[13] = tested on: SNB-19
[14] = tested on: U-251
[15] = tested on: MOLT-4
[16] = tested on: A498

COc1ccc(C(O)C(c2ccc(OCc3ccccc3)cc2)c2ccc(OCc3ccccc3)cc2)cc1 (stereo unspecified)
GI50 [1]: > 100 µM (inactive)
GI50 [2]: > 100 µM (inactive)
GI50 [3]: > 100 µM (inactive)
GI50 [4]: > 100 µM (inactive)
GI50 [5]: > 100 µM (inactive)
GI50 [6]: > 100 µM (inactive)
GI50 [7]: > 100 µM (inactive)
GI50 [8]: > 100 µM (inactive)
GI50 [9]: > 100 µM (inactive)
GI50 [10]: > 100 µM (inactive)
GI50 [11]: > 100 µM (inactive)
GI50 [12]: > 100 µM (inactive)
GI50 [13]: > 100 µM (inactive)
GI50 [14]: > 100 µM (inactive)

Cc1cccc(C(C)(C)C)c1NC(=O)CC1C(=O)Nc2ccccc2[S+]1[O-] (stereo unspecified)
GI50 [1]: 21.1 µM (inactive)
GI50 [2]: 34.3 µM (inactive)
GI50 [3]: 18.5 µM (inactive)
GI50 [4]: 26.4 µM (inactive)
GI50 [5]: 97.1 µM (inactive)
GI50 [6]: 73.6 µM (inactive)
GI50 [8]: 31.4 µM (inactive)
GI50 [9]: 41.5 µM (inactive)
GI50 [10]: > 100 µM (inactive)
GI50 [11]: 75.7 µM (inactive)
GI50 [12]: 34.1 µM (inactive)
GI50 [15]: 20.3 µM (inactive)
GI50 [13]: 57.1 µM (inactive)
GI50 [14]: 58.9 µM (inactive)

N=C(c1ccccc1)N(O)C1CCCCC1
GI50 [1]: > 100 µM (inactive)
GI50 [3]: > 100 µM (inactive)
GI50 [4]: > 100 µM (inactive)
GI50 [5]: > 100 µM (inactive)
GI50 [6]: > 100 µM (inactive)
GI50 [9]: > 100 µM (inactive)
GI50 [10]: > 100 µM (inactive)
GI50 [11]: > 100 µM (inactive)
GI50 [13]: > 100 µM (inactive)
GI50 [14]: > 100 µM (inactive)

CN1CC2(CCCCC2)C(O)C12C=CCCC2 (stereo unspecified)
GI50 [1]: > 100 µM (inactive)
GI50 [2]: > 100 µM (inactive)
GI50 [4]: > 100 µM (inactive)
GI50 [5]: > 100 µM (inactive)
GI50 [6]: > 100 µM (inactive)
GI50 [7]: > 100 µM (inactive)
GI50 [9]: > 100 µM (inactive)
GI50 [10]: > 100 µM (inactive)
GI50 [16]: > 100 µM (inactive)
GI50 [11]: > 100 µM (inactive)
GI50 [12]: > 100 µM (inactive)
GI50 [15]: > 100 µM (inactive)
GI50 [13]: > 100 µM (inactive)
GI50 [14]: > 100 µM (inactive)

Cc1nc(-n2nc(-c3ccccc3)cc2-c2ccccc2)sc1C(/C=C/c1ccc([N+](=O)[O-])cc1)=N/NC(N)=S
GI50 [1]: 33.2 µM (inactive)
GI50 [2]: 11.9 µM (inactive)
GI50 [4]: 27.8 µM (inactive)
GI50 [5]: 39.8 µM (inactive)
GI50 [6]: 21.7 µM (inactive)
GI50 [7]: 73.5 µM (inactive)
GI50 [8]: 46.1 µM (inactive)
GI50 [9]: 91.8 µM (inactive)
GI50 [10]: 18.2 µM (inactive)
GI50 [16]: > 100 µM (inactive)
GI50 [11]: 28 µM (inactive)
GI50 [12]: 21.6 µM (inactive)
GI50 [15]: 13.6 µM (inactive)
GI50 [13]: > 100 µM (inactive)
GI50 [14]: 47.2 µM (inactive)

Cc1cccc(/C=N/N=C(\N)NO)n1
GI50 [1]: > 100 µM (inactive)
GI50 [3]: 28.2 µM (inactive)
GI50 [4]: > 100 µM (inactive)
GI50 [5]: 58.7 µM (inactive)
GI50 [6]: 14.4 µM (inactive)
GI50 [7]: 19.9 µM (inactive)
GI50 [8]: 27.3 µM (inactive)
GI50 [9]: > 100 µM (inactive)
GI50 [10]: 36.8 µM (inactive)
GI50 [16]: > 100 µM (inactive)
GI50 [11]: 26.7 µM (inactive)
GI50 [12]: 33.5 µM (inactive)
GI50 [15]: 51.4 µM (inactive)
GI50 [14]: 78.7 µM (inactive)

[N-]=[N+]=Nc1ccccc1-[n+]1noc([O-])c1Br
GI50 [1]: > 100 µM (inactive)
GI50 [2]: > 100 µM (inactive)
GI50 [3]: > 100 µM (inactive)
GI50 [4]: > 100 µM (inactive)
GI50 [5]: > 100 µM (inactive)
GI50 [6]: > 100 µM (inactive)
GI50 [7]: > 100 µM (inactive)
GI50 [8]: > 100 µM (inactive)
GI50 [9]: > 100 µM (inactive)
GI50 [10]: > 100 µM (inactive)
GI50 [11]: > 100 µM (inactive)
GI50 [12]: > 100 µM (inactive)
GI50 [15]: > 100 µM (inactive)
GI50 [13]: > 100 µM (inactive)
GI50 [14]: > 100 µM (inactive)

CN(/N=C\c1ccnc2ccccc12)c1ccc([N+](=O)[O-])cc1
GI50 [1]: > 100 µM (inactive)
GI50 [2]: 8.26 µM (inactive)
GI50 [4]: > 100 µM (inactive)
GI50 [5]: 95.7 µM (inactive)
GI50 [6]: 16 µM (inactive)
GI50 [7]: > 100 µM (inactive)
GI50 [8]: > 100 µM (inactive)
GI50 [9]: > 100 µM (inactive)
GI50 [10]: > 100 µM (inactive)
GI50 [16]: > 100 µM (inactive)
GI50 [11]: 27 µM (inactive)
GI50 [12]: 25.3 µM (inactive)
GI50 [15]: > 100 µM (inactive)
GI50 [13]: > 100 µM (inactive)
GI50 [14]: 8.77 µM (inactive)

O=C(CC(=O)N1N=C(c2ccccc2)C(/N=N/c2ccc(C(=O)O)cc2)C1=O)Nc1ccc(F)cc1 (stereo unspecified)
GI50 [1]: 43.8 µM (inactive)
GI50 [2]: 27.5 µM (inactive)
GI50 [3]: 52 µM (inactive)
GI50 [4]: 23.4 µM (inactive)
GI50 [5]: 40.8 µM (inactive)
GI50 [7]: 12.2 µM (inactive)
GI50 [8]: 23.6 µM (inactive)
GI50 [9]: 38.3 µM (inactive)
GI50 [10]: 21.2 µM (inactive)
GI50 [16]: 10.6 µM (inactive)
GI50 [11]: 13.4 µM (inactive)
GI50 [12]: 18.9 µM (inactive)
GI50 [13]: 36.4 µM (inactive)

O=[N+]([O-])C=C1c2ccccc2-c2ccccc21
GI50 [1]: 1.86 µM (inactive)
GI50 [2]: 2.18 µM (inactive)
GI50 [3]: 14.2 µM (inactive)
GI50 [4]: 16.8 µM (inactive)
GI50 [5]: 16.4 µM (inactive)
GI50 [6]: 17.3 µM (inactive)
GI50 [8]: 16.9 µM (inactive)
GI50 [9]: 17.2 µM (inactive)
GI50 [10]: 16.7 µM (inactive)
GI50 [16]: 19.6 µM (inactive)
GI50 [11]: 17.5 µM (inactive)
GI50 [12]: 2.52 µM (inactive)
GI50 [15]: 3.7 µM (inactive)
GI50 [13]: 23 µM (inactive)
GI50 [14]: > 10 µM (inactive)

O=[N+]([O-])c1nccn1COCCO
GI50 [1]: > 100 µM (inactive)
GI50 [2]: > 100 µM (inactive)
GI50 [3]: > 100 µM (inactive)
GI50 [4]: > 100 µM (inactive)
GI50 [6]: > 100 µM (inactive)
GI50 [7]: > 100 µM (inactive)
GI50 [8]: > 100 µM (inactive)
GI50 [9]: > 100 µM (inactive)
GI50 [10]: > 100 µM (inactive)
GI50 [16]: > 100 µM (inactive)
GI50 [15]: 0.442 µM (active)
GI50 [13]: > 100 µM (inactive)
GI50 [14]: > 100 µM (inactive)

CC1=NN(C(=O)c2ccc([N+](=O)[O-])cc2)C(=O)C1/N=N/c1ccccc1C(=O)O (stereo unspecified)
GI50 [1]: > 100 µM (inactive)
GI50 [2]: > 100 µM (inactive)
GI50 [4]: > 100 µM (inactive)
GI50 [5]: > 100 µM (inactive)
GI50 [6]: > 100 µM (inactive)
GI50 [7]: 53.6 µM (inactive)
GI50 [8]: > 100 µM (inactive)
GI50 [9]: > 100 µM (inactive)
GI50 [10]: > 100 µM (inactive)
GI50 [16]: > 100 µM (inactive)
GI50 [11]: > 100 µM (inactive)
GI50 [12]: 71.3 µM (inactive)
GI50 [15]: > 100 µM (inactive)
GI50 [13]: > 100 µM (inactive)
GI50 [14]: 99.1 µM (inactive)

CCC(C)CN1C(=O)NC(C)(Cc2ccccc2)C1=O (stereo unspecified)
GI50 [1]: > 100 µM (inactive)
GI50 [4]: > 100 µM (inactive)
GI50 [5]: > 100 µM (inactive)
GI50 [6]: > 100 µM (inactive)
GI50 [8]: > 100 µM (inactive)
GI50 [9]: > 100 µM (inactive)
GI50 [10]: > 100 µM (inactive)
GI50 [11]: > 100 µM (inactive)
GI50 [13]: > 100 µM (inactive)
GI50 [14]: > 100 µM (inactive)

C/C=C1/CCC2c3[nH]c4ccccc4c3CCN2C1 (stereo unspecified)
GI50 [3]: 42 µM (inactive)
GI50 [4]: > 100 µM (inactive)
GI50 [5]: > 100 µM (inactive)
GI50 [6]: > 100 µM (inactive)
GI50 [7]: > 100 µM (inactive)
GI50 [8]: > 100 µM (inactive)
GI50 [9]: > 100 µM (inactive)
GI50 [10]: > 100 µM (inactive)
GI50 [16]: > 100 µM (inactive)
GI50 [11]: > 100 µM (inactive)
GI50 [12]: 32 µM (inactive)
GI50 [15]: > 100 µM (inactive)
GI50 [13]: > 100 µM (inactive)
GI50 [14]: > 100 µM (inactive)
